Columns and labels:
[1] = The drug is tested on Ruminococcus torques strain: ATCC27756 for biotransformation. The drug concentrations were measured before and after a 12-h incubation by liquid-chromatography-coupled mass spectrometry (LC–MS); format: ADME; set-up: dose 2 uM, timepoint 0 vs 12 hours; conditions: 2 µM
[2] = The drug is tested on Bacteroides pectinophilus strain: ATCC43243 for biotransformation. The drug concentrations were measured before and after a 12-h incubation by liquid-chromatography-coupled mass spectrometry (LC–MS); conditions: 2 µM
[3] = bacteroides thetaiotaomicron, 12 h, 2 µM
[4] = bacteroides eggerthii, 12 h, 2 µM
[5] = The drug is tested on Bacteroides fragilis strain: HMW610 for biotransformation. The drug concentrations were measured before and after a 12-h incubation by liquid-chromatography-coupled mass spectrometry (LC–MS); conditions: 2 µM
[6] = The drug is tested on Parabacteroides merdae strain: ATCC43184 for biotransformation. The drug concentrations were measured before and after a 12-h incubation by liquid-chromatography-coupled mass spectrometry (LC–MS); conditions: 2 µM
[7] = The drug is tested on Clostridium sporogenes strain: ATCC15579 for biotransformation. The drug concentrations were measured before and after a 12-h incubation by liquid-chromatography-coupled mass spectrometry (LC–MS); conditions: 2 µM
[8] = bacteroides thetaiotaomicron, 12 h, 2 µM; remark: listed apart in the source
[9] = The drug is tested on Collinsella aerofaciens strain: ATCC25986 for biotransformation. The drug concentrations were measured before and after a 12-h incubation by liquid-chromatography-coupled mass spectrometry (LC–MS); conditions: 2 µM
[10] = bacteroides fragilis, 12 h, 2 µM
[11] = The drug is tested on Escherichia coli strain: BW25113 for biotransformation. The drug concentrations were measured before and after a 12-h incubation by liquid-chromatography-coupled mass spectrometry (LC–MS); conditions: 2 µM
[12] = The drug is tested on Bacteroides ovatus strain: ATCC8483 for biotransformation. The drug concentrations were measured before and after a 12-h incubation by liquid-chromatography-coupled mass spectrometry (LC–MS); conditions: 2 µM
[13] = The drug is tested on Enterobacter cancerogenus strain: ATCC35316 for biotransformation. The drug concentrations were measured before and after a 12-h incubation by liquid-chromatography-coupled mass spectrometry (LC–MS); conditions: 2 µM
[14] = The drug is tested on Bifidobacterium longum subsp. Infantis strain: CCUG52486 for biotransformation. The drug concentrations were measured before and after a 12-h incubation by liquid-chromatography-coupled mass spectrometry (LC–MS); conditions: 2 µM
[15] = The drug is tested on Bacteroides vulgatus strain: ATCC8482 for biotransformation. The drug concentrations were measured before and after a 12-h incubation by liquid-chromatography-coupled mass spectrometry (LC–MS); conditions: phocaeicola vulgatus, 2 µM
[16] = enterocloster bolteae, 12 h, 2 µM
[17] = The drug is tested on Bacteroides sp. WH2 strain: WH2 for biotransformation. The drug concentrations were measured before and after a 12-h incubation by liquid-chromatography-coupled mass spectrometry (LC–MS); conditions: bacteroides sp. wh2, 12 h, 2 µM
[18] = The drug is tested on Eubacterium ventriosum strain: ATCC27560 for biotransformation. The drug concentrations were measured before and after a 12-h incubation by liquid-chromatography-coupled mass spectrometry (LC–MS); format: ADME; set-up: dose 2 uM, timepoint 0 vs 12 hours; conditions: 2 µM
[19] = The drug is tested on Bacteroides cellulosilyticus strain: DSM14838 for biotransformation. The drug concentrations were measured before and after a 12-h incubation by liquid-chromatography-coupled mass spectrometry (LC–MS); conditions: 2 µM
[20] = limosilactobacillus reuteri cf48-3a, 12 h, 2 µM

| Compound | Bacterial Biotransformation [1] | Bacterial Biotransformation [2] | Bacterial Biotransformation [3] | Bacterial Biotransformation [4] | Bacterial Biotransformation [5] | Bacterial Biotransformation [6] | Bacterial Biotransformation [7] | Bacterial Biotransformation [8] | Bacterial Biotransformation [9] | Bacterial Biotransformation [10] | Bacterial Biotransformation [11] | Bacterial Biotransformation [12] | Bacterial Biotransformation [13] | Bacterial Biotransformation [14] | Bacterial Biotransformation [15] | Bacterial Biotransformation [16] | Bacterial Biotransformation [17] | Bacterial Biotransformation [18] | Bacterial Biotransformation [19] | Bacterial Biotransformation [20] |
| --- | --- | --- | --- | --- | --- | --- | --- | --- | --- | --- | --- | --- | --- | --- | --- | --- | --- | --- | --- | --- |
| CC12CC3CC(C)(C1)CC(N)(C3)C2 [MEMANTINE] | Compound NOT metabolized | Compound NOT metabolized | Compound NOT metabolized | Compound NOT metabolized | Compound NOT metabolized | Compound NOT metabolized | Compound NOT metabolized | Compound NOT metabolized | Compound NOT metabolized | Compound NOT metabolized | Compound NOT metabolized | Compound NOT metabolized | Compound NOT metabolized | Compound NOT metabolized | Compound NOT metabolized | Compound NOT metabolized | Compound NOT metabolized |  |  |  |
| CC(C)(C)NC[C@H](O)COc1ccccc1C1CCCC1.CC(C)(C)NC[C@H](O)COc1ccccc1C1CCCC1.O=S(=O)(O)O [PENBUTOLOL SULFATE] | Compound NOT metabolized |  | Compound NOT metabolized | Compound NOT metabolized | Compound NOT metabolized | Compound NOT metabolized | Compound NOT metabolized | Compound NOT metabolized | Compound NOT metabolized |  | Compound NOT metabolized | Compound NOT metabolized |  | Compound NOT metabolized | Compound metabolized | Compound NOT metabolized | Compound NOT metabolized | Compound NOT metabolized | Compound NOT metabolized | Compound NOT metabolized |
| Cc1cc(C)cc(OCC2CNC(=O)O2)c1 (configuration not stated) [METAXALONE] |  | Compound metabolized | Compound NOT metabolized |  | Compound metabolized |  | Compound NOT metabolized |  | Compound NOT metabolized |  |  | Compound metabolized |  | Compound NOT metabolized | Compound metabolized | Compound NOT metabolized | Compound NOT metabolized | Compound NOT metabolized |  | Compound NOT metabolized |
| CCC(=O)NCC[C@@H]1CCc2ccc3c(c21)CCO3 [RAMELTEON] | Compound NOT metabolized | Compound NOT metabolized | Compound metabolized | Compound metabolized | Compound metabolized | Compound metabolized | Compound NOT metabolized | Compound metabolized | Compound NOT metabolized |  | Compound NOT metabolized |  |  | Compound NOT metabolized | Compound metabolized | Compound NOT metabolized | Compound NOT metabolized | Compound NOT metabolized | Compound NOT metabolized | Compound NOT metabolized |
| C=C[C@H]1CN2CC[C@H]1C[C@H]2[C@H](O)c1ccnc2ccc(OC)cc12.C=C[C@H]1CN2CC[C@H]1C[C@H]2[C@H](O)c1ccnc2ccc(OC)cc12.O.O.O=S(=O)(O)O [QUININE SULFATE] | Compound NOT metabolized | Compound NOT metabolized |  | Compound NOT metabolized |  |  |  |  | Compound NOT metabolized |  |  | Compound NOT metabolized |  | Compound NOT metabolized |  | Compound NOT metabolized | Compound NOT metabolized | Compound NOT metabolized |  | Compound NOT metabolized |
| Cc1ccc(/C(=C\CN2CCCC2)c2ccccn2)cc1 [TRIPROLIDINE] | Compound NOT metabolized | Compound NOT metabolized | Compound NOT metabolized | Compound NOT metabolized | Compound NOT metabolized | Compound NOT metabolized | Compound NOT metabolized | Compound NOT metabolized | Compound NOT metabolized | Compound NOT metabolized |  | Compound NOT metabolized |  |  | Compound NOT metabolized | Compound NOT metabolized | Compound NOT metabolized | Compound NOT metabolized |  | Compound NOT metabolized |
| CCN(CC)CCNC(=O)c1cc(S(C)(=O)=O)ccc1OC [TIAPRIDE] | Compound NOT metabolized | Compound NOT metabolized | Compound NOT metabolized |  | Compound NOT metabolized | Compound NOT metabolized | Compound NOT metabolized | Compound NOT metabolized | Compound NOT metabolized |  | Compound NOT metabolized | Compound NOT metabolized | Compound NOT metabolized | Compound NOT metabolized | Compound NOT metabolized | Compound NOT metabolized | Compound NOT metabolized |  |  | Compound NOT metabolized |
| CCCCC(=O)N(Cc1ccc(-c2ccccc2-c2nnn[nH]2)cc1)[C@H](C(=O)O)C(C)C | Compound NOT metabolized | Compound NOT metabolized | Compound metabolized | Compound NOT metabolized | Compound metabolized | Compound NOT metabolized | Compound NOT metabolized |  | Compound NOT metabolized | Compound NOT metabolized | Compound NOT metabolized | Compound NOT metabolized | Compound NOT metabolized | Compound NOT metabolized | Compound metabolized | Compound NOT metabolized | Compound NOT metabolized | Compound NOT metabolized |  | Compound NOT metabolized |
| CN(C)C(=O)C(CCN1CCC(O)(c2ccc(Cl)cc2)CC1)(c1ccccc1)c1ccccc1 [LOPERAMIDE] | Compound NOT metabolized | Compound NOT metabolized | Compound NOT metabolized | Compound metabolized | Compound metabolized |  | Compound metabolized | Compound NOT metabolized | Compound NOT metabolized | Compound metabolized | Compound metabolized |  |  |  | Compound metabolized | Compound NOT metabolized | Compound NOT metabolized | Compound NOT metabolized | Compound NOT metabolized | Compound NOT metabolized |
| C[C@@H]1C[C@H]2[C@@H]3CCC4=CC(=O)C=C[C@]4(C)[C@@]3(F)[C@@H](O)C[C@]2(C)[C@@]1(O)C(=O)CO [DEXAMETHASONE] | Compound NOT metabolized |  | Compound NOT metabolized | Compound NOT metabolized | Compound metabolized |  |  | Compound metabolized |  |  | Compound NOT metabolized |  | Compound NOT metabolized |  |  |  | Compound NOT metabolized |  |  |  |

Reference: ChEMBL document CHEMBL5303573, “Mapping human microbiome drug metabolism by gut bacteria and their genes” (Nature, 2019)
